Laboratory results from patent publication US20050124668A1, “Amino acids with affinity for the alpha2delta-protein” (priority 2003, published 2005).

Assays:
[1] = target: T1, α2δ-subunit of a calcium channel (Sus scrofa, UniProt A0A287BIN3); assay: radioligand binding assay using [3H]-gabapentin; details: α2δ-subunit derived from porcine brain tissue
T1 construct: the α2δ-subunit derived from porcine brain tissue was used; from tissue; host or cells: porcine brain tissue
Text: The ability of compounds of the present invention to bind to the α2δ-subunit of a calcium channel can be determined using the following binding assay.
The radioligand binding assay using [^3H]-gabapentin and the α2δ-subunit derived from porcine brain tissue was used. See Nicolas S. Gee et al., “The novel anticonvulsant drug, gabapentin (Neurontin), binds to the α2 subunit of a calcium channel,” J. Biol. Chem. 271 (10):5768-76 (1996). Compounds of the invention bind with nanomolar to micromolar affinity for the α2δ protein.

T1 sequence (A0A287BIN3 25-1109): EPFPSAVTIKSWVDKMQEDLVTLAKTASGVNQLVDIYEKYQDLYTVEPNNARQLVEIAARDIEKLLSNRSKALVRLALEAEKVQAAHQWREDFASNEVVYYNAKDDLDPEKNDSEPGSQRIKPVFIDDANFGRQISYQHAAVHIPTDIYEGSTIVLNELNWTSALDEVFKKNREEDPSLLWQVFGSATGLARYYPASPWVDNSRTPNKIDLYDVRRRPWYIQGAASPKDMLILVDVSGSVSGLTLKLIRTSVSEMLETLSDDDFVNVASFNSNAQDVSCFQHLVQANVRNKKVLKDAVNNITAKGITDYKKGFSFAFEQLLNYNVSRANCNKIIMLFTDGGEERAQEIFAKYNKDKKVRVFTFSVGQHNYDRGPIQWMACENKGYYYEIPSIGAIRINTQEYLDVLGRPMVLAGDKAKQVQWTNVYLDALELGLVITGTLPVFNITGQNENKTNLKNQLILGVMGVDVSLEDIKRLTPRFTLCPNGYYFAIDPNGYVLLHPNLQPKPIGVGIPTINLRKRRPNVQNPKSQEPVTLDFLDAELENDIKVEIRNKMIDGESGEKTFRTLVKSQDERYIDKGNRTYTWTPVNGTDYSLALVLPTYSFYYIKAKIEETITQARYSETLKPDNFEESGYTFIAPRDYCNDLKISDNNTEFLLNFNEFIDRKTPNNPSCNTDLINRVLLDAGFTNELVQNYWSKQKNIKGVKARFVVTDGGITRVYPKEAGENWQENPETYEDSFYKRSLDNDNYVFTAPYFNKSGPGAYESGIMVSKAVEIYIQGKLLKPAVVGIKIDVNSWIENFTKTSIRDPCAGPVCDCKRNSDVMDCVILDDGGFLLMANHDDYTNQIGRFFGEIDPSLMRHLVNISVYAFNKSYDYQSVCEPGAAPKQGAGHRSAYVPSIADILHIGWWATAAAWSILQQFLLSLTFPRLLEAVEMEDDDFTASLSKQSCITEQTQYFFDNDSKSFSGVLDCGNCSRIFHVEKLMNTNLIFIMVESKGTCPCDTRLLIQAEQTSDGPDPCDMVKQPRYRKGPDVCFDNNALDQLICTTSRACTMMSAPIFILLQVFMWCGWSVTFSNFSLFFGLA

CC[C@H](C)C[C@](C)(N)CC(=O)O
melting point: 215 to 217 °C

CCCCC(CC)CCC(CN)C(=O)O (stereo not shown) [2-aminomethyl-5-ethyl-nonanoic acid]
affinity to the α2δ protein [1]: 75 nM

CC[C@@H](C)C[C@](C)(N)CC(=O)O [(3S,5R)-3-amino-3,5-dimethyl-heptanoic acid]
affinity to the α2δ protein [1]: 236 nM

CCC(CC)C[C@](C)(N)CC(=O)O [(S)-3-amino-5-ethyl-3-methyl-heptanoic acid]
affinity to the α2δ protein [1]: 149 nM
